Measured values from patent publication US20240165072A1, “PHARMACEUTICAL COMPOSITION FOR ALLEVIATING OR TREATING HAIR LOSS THROUGH INFLAMMATION AMELIORATION OF HUMAN DERMAL PAPILLA CELLS AND PERIPHERAL CELLS AND INHIBITION OF 5A-REDUCTASE EXPRESSION” (BEN'S LAB. CO. LTD., priority 2021, published 2024).
In brackets after ≈: the same amount, converted by molar mass. Read-outs that look alike come from different tables or passages of the source.

Tests used:
[1] = test system: TNF-α release in mouse macrophages RAW 264.7 cells; test: Inhibition of TNF-α secretion in macrophages (ELISA); type: cell-based; conditions: for IC50: Mus musculus, RAW264.7, LPS 100 ng/ml
Description: (§1) Mouse macrophage RAW 264.7 was dispensed into a 24-well plate at a concentration of 2×10^5 cells/well, and cultured in an incubator at 37° C. under 5% CO2 using a DMEM medium for 24 hours, and then samples were added according to the concentrations. Thirty minutes after addition of the sample, LPS (100 ng/ml) was added and cultured at 37° C. for 20 hours to collect the culture medium. The secreted IL-6 and TNF-α were respectively quantified using Mouse IL-6 ELISA kit (Invitrogen, Thermo Scientific) and Mouse TNF-α ELISA kit (Invitrogen, Thermo Scientific).

[2] = test system: histamine release in RBL-2H3 cells; test: Inhibition of histamine release in RBL-2H3 cells (Compound 48/80); type: cell-based, rat
Description: White rat basophil leukemia cells (RBL-2H3) were dispensed into a 24-well plate at a concentration of 1×10^5 cells/well, and cultured for 24 hours. Samples were added according to the concentrations. After 1 hour, Compound 48/80 (1 mg/ml), which triggers an allergic reaction, was added and cultured for 20 minutes. The well plate was allowed to stand in a refrigerator at 4° C. for 10 minutes, and then the medium was collected and the amount of histamine released into the medium was quantified using the Histamine ELISA kit (Neogen).

[3] = test system: IL-6 release in mouse macrophages RAW 264.7 cells; test: Inhibition of IL-6 secretion in macrophages (ELISA); type: cell-based; conditions: for IC50: Mus musculus, RAW264.7, LPS 100 ng/ml
Description: as §1

5α-reductase type II = test: Inhibition of 5α-reductase type II expression in human dermal papilla cells (Western blot); type: cell-based; conditions: HFDPC; testosterone 10 μM; 72 hours; samples 10, 20 μg/ml; order genistein, kaempferol, EGCG (FIG. 4)
Description: The medium was then removed, and cells were collected by washing with PBS to extract proteins. To extract a protein, a lysis buffer for radio immunoprecipitation assay (RIPA) (sodium chloride 150 mM, sodium dodecyl sulfate (SDS) 0.1%, tris-hydrochloric acid (Tris-HCl: pH 7.5) 50 mM, ethylenediaminetetraacetic acid (EDTA) 2 mM, sodium deoxycholate 0.5%, Triton X-100 1%) was added and reacted, and then centrifuged at 10,000 rpm and 4° C. for 15 minutes to collect the supernatant. Then, the absorbance was measured at 595 nm to determine the protein concentration of each sample. These cell protein samples were mixed with sodium dodecyl sulfate (SDS) and a stain, and subjected to electrophoresis on a 12% SDS polyacrylamide gel.

[4] = test system: nitric oxide production in RAW 264.7 cells; test: Inhibitory effect on nitric oxide production in macrophages (Griess); type: cell-based, mouse; conditions: LPS 1 μg/ml, RAW 264.7 (FIG. 2); for inhibition of nitric oxide production, rank among the three samples: compared with kaempferol
Description: RAW 264.7 cells, which is a mouse macrophage cell line, were dispensed in a 24-well plate at a concentration of 2×10^5 cells/well, and cultured in an incubator at 37° C. under 5% CO2 for 24 hours. Epigallocatechin gallate (EGCG), genistein, and kaempferol, which were samples dissolved in DMSO, were added thereto according to the concentrations. At this time, the final concentration of DMSO was adjusted to 0.1%. After 30 minutes, LPS (lipopolysaccharide), which is an inflammation inducing substance, was added at a concentration of 1 μg/ml. After that, these were cultured in an incubator at 37° C. under 5% CO2 for 24 hours.
To quantify nitric oxide, 50 ? of Griess reagent A (5% phosphoric acid, 1% sulfanilamide) was added to 50 ? of the cell culture medium, and then the mixture was allowed to stand in a dark place for 5 minutes. 50 ? of Griess reagent B (0.1% N-(1-naphthyl)ethylenediamine dihydrochloride) was further added thereto, and allowed to react in a dark place for 5 minutes. The absorbance of this reactant was measured at 540 nm, which was compared with the standard curve to calculate the final concentration of nitrogen monoxide. A standard curve was obtained by reacting in the same manner as above using sodium nitrite instead of the cell culture medium and then measuring the absorbance.

[5] = ABTS radical scavenging ability; type: biochemical; conditions: for ABTS radical scavenging ability (IC50): 10 minutes, absorbance 734 nm
Description: The ABTS radical scavenging ability was calculated according to the following Equation.
ABTS radical scavenging ability (%)=[1−(AB)/C]×100
wherein, A is the absorbance of the sample-added group (ABTS+sample); B is the absorbance of the distilled water-added group (sample+distilled water) instead of ABTS; and C is the absorbance of the ethanol-added group (ABTS+ethanol) instead of the sample.

[6] = DPPH radical scavenging ability; type: biochemical; conditions: for DPPH radical scavenging ability (IC50): DPPH 300 μM, 30 minutes
Description: 100 ? l sample and the same amount of DPPH (2,2-diphenyl-1-picrylhydrazyl, 300 μM) solution were mixed in a 96-well plate, and reacted in a dark place for 30 minutes, and the absorbance was measured at 520 nm. The same amount of ethanol was reacted instead of the sample, and the blank value was calculated according to the following Equation.
DPPH radical scavenging ability (%)=[1−(A−B)/C]×100
wherein, A is the absorbance of the sample-added group (DPPH+sample); B is the absorbance of the ethanol-added group (sample+ethanol) instead of DPPH; and C is the absorbance of the ethanol-added group (DPPH+ethanol) instead of the sample.

[7] = test system: IL-6 secretion in human follicle dermal papilla cells (HFDPC); conditions: TST or DHT 10 μM, 72 hours (FIG. 3)
Description: Human follicle dermal papilla cells (HFDPC) were dispensed into a 12-well plate at a concentration of 1×10^5 cells/well, and cultured for 24 hours. After that, the medium was replaced with Dulbecco's modified eagle's medium (DMEM) containing no fetal bovine serum (FBS), and subjected to starvation for 24 hours, and then samples were added according to the concentrations (2, 5, 10, 20 μg/ml). […] Then, the medium was collected, and IL-6 secreted in the medium was quantified using a Human IL-6 ELISA kit (Invitrogen, Thermo Scientific).

cyclooxygenase-2 (COX-2) = test: COX-2 expression inhibition in LPS-stimulated RAW 264.7 (Western blot); type: cell-based, mouse; conditions: 25 μg/ml, LPS 100 ng/ml, Western blot (FIG. 1)
Description: (§2) Mouse macrophage RAW 264.7 was dispensed into a 6-well plate at a concentration of 6×10^5 cells/well (number of cells per well), and cultured in an incubator at 37° C. under 5% CO2 using a DMEM Dulbecco's Modified Eagle's Medium (Sigma-Aldrich, Cat. No. D7777) for 24 hours, and then samples were added according to the concentrations.
(§3) Thirty minutes after the addition of the sample, lipopolysaccharide (LPS, 100 ng/ml) was added, and further cultured for 20 hours. After that, the medium was removed, washed with phosphate buffered saline (PBS) to collect the cells. In order to extract the protein, a lysis buffer for radioimmunoprecipitation assay (RIPA; sodium chloride 150 mM, sodium dodecyl sulfate (SDS) 0.1%, tris-hydrochloric acid (Tris-HCl: pH 7.5) 50 mM, ethylenediaminetetraacetic acid (EDTA) 2 mM, sodium deoxycholate 0.5%, Triton X-100 1%) was added and reacted, and then centrifuged at 10,000 rpm and 4° C. for 15 minutes to obtain the supernatant. The absorbance of the supernatant was then measured at 595 nm to determine the protein concentration of each sample. Then, the cell protein sample was mixed with sodium dodecyl sulfate (SDS) and a stain, and subjected to electrophoresis on a 12% SDS polyacrylamide gel. […]

[8] = test system: inducible nitric oxide synthase (iNOS); test: iNOS expression inhibition in LPS-stimulated RAW 264.7 (Western blot); type: cell-based, mouse; conditions: 25 μg/ml, LPS 100 ng/ml, Western blot (FIG. 1)
Description: as §2, §3

5-lipoxygenase (5-LO) = test: Inhibition of 5-lipoxygenase (5-LO) expression in RBL-2H3 (Western blot); type: cell-based, rat; conditions: Compound 48/80 1 mg/ml (FIG. 5)
Description: White rat basophilic leukemia cells (RBL-2H3) were dispensed into a 6-well plate at a concentration of 3×10^5 cells/well, and cultured in an incubator at 37° C. under 5% CO2 using a DMEM medium for 24 hours. Samples were added according to the concentrations, cultured for 24 hours, and then Compound 48/80 (1 mg/ml), which is substance that induces an allergic reaction, was added, and cultured for 1 hour. After that, the medium was removed, and washed with PBS to collect the cells, and then proteins were extracted. To extract protein, lysis buffer for radioimmunoprecipitation assay (RIPA; sodium chloride 150 mM, sodium dodecyl sulfate (SDS) 0.1%, tris-hydrochloric acid (Tris-HCl: pH 7.5) 50 mM, ethylenediaminetetraacetic acid (EDTA) 2 mM, sodium deoxycholate 0.5%, Triton X-100 1%) was added and reacted, and then centrifuged at 10,000 rpm and 4° C. for 15 minutes to take the supernatant. The absorbance thereof was then measured at 595 nm to determine the protein concentration of each sample. Then, the cell protein sample was mixed with sodium dodecyl sulfate (SDS) and a stain, and subjected to electrophoresis on a 12% SDS polyacrylamide gel. […]

[9] = Rattus norvegicus, Compound 48/80 1 mg/ml
[10] = highest inhibitory effect among EGCG, genistein, kaempferol

| SMILES | inhibition of 5α-reductase type II expression (5α-reductase type II) | inhibition of nitric oxide production, rank among the three samples [4] | ABTS radical scavenging ability (IC50) [5] | DPPH radical scavenging ability (IC50) [6] | IC50 ([1]; 20 hours) | IC50 [2, 9] | IC50 ([3]; 20 hours) | further results |
| --- | --- | --- | --- | --- | --- | --- | --- | --- |
| O=C(O[C@@H]1Cc2c(O)cc(O)cc2O[C@@H]1c1cc(O)c(O)c(O)c1)c1cc(O)c(O)c(O)c1 [Epigallocatechin gallate (EGCG), Epigallocatechin gallate] | effectively inhibited | next most inhibitory | 1.65 µg/mL | 3.40 µg/mL |  |  |  | TNF-α (IC50) ([1]; LPS 100 ng/ml, 20 hours): 83.68 ± 3.45 µg/mL; histamine release inhibition (IC50) ([2]; Compound 48/80 1 mg/ml): 50.0 ± 9.80 µg/mL; IL-6 (IC50) ([3]; LPS 100 ng/ml, 20 hours): 98.99 ± 10.87 µg/mL |
| O=c1c(-c2ccc(O)cc2)coc2cc(O)cc(O)c12 [Genistein] | effectively inhibited | slightly decreased the inhibitory power |  |  | 14.99 ± 0.11 µg/mL (≈ 55.5 µM) | > 1000 µg/mL | 8.92 ± 0.08 µg/mL (≈ 33 µM) | inhibition of the release of IL-6 by DHT or TST ([7]; 5 μg/ml): almost completely inhibited; inhibition at 1000 µg/mL ([2]; Rattus norvegicus, at 1000 μg/ml): 46%; inhibition of COX-2 expression (cyclooxygenase-2 (COX-2)): mostly inhibited the expression of COX-2; ABTS radical scavenging ability ([5]; at 100 ppm): 5.29% at 100 ppm; DPPH radical scavenging ability ([6]; at 100 ppm): 5.18% at 100 ppm |
| O=c1c(O)c(-c2ccc(O)cc2)oc2cc(O)cc(O)c12 [Kaempferol] | effectively inhibited |  | 6.18 ± 0.08 µg/mL | 11.66 ± 0.30 µg/mL | 13.6 ± 0.72 µg/mL (≈ 47.4 µM) | 0.2 ± 0.02 µg/mL (≈ 0.699 µM) | 5.93 ± 0.07 µg/mL (≈ 20.7 µM) | inhibition of TNF-α in macrophages (in words) [1, 10]: effectively inhibited; inhibition of iNOS expression [8]: inhibited the expression of iNOS to the control (CON) levels; inhibition of the release of IL-6 by DHT or TST ([7]; 10 μg/ml): almost completely inhibited; inhibition at 0.2 µg/mL ([2]; Rattus norvegicus, at 0.2 μg/ml): > 50%; inhibition of IL-6 in macrophages (in words) [3, 10]: effectively inhibited; inhibition of nitric oxide production ([4]; 20 μg/ml): inhibited almost to the control level; inhibition of 5-LO expression (5-lipoxygenase (5-LO)): effectively inhibits 5-LO expression at the lowest concentration |
